Earlier results, collected in patent US20190274302A1, “COMPOSITIONS FOR ACTIVE TREATING AND […] DISEASES” (priority 2018, published 2019).
Where two headings read alike, the source gives them in different places.

Row | Structure (SMILES) | pH (1 mM) | pH (10 mM) | pH (100 mM)
1 | Oc1ccccc1 [phenol] | 6.47 | 5.99 | 5.49
2 | O=C(O)CC(=O)O [malonic acid] | 3.17 | 2.50 | 1.94
3 | O=C(O)c1ccccc1 [benzoic acid] | 3.66 | 3.12 | 2.60
4 | O=C(O)/C=C(\CC(=O)O)C(=O)O [trans-aconitic acid] | 3.14 | 2.48 | 1.92
5 | O=C(O)/C=C(/CC(=O)O)C(=O)O [cis-aconitic acid] | 3.05 | 2.21 | 1.55
6 | O=CO [formic acid] | 3.47 | 2.91 | 2.38

The next lines start with the values.

Row | pH (1 mM) | pH (10 mM) | pH (100 mM) | Structure (SMILES)
7 | 3.96 | 3.44 | 2.94 | CCC(=O)O [propanoic acid]
8 | 3.51 | 2.96 | 2.44 | CC(O)C(=O)O (stereo not drawn) [lactic acid]
9 | 3.24 | 2.62 | 2.08 | O=C(O)CC(O)(CC(=O)O)C(=O)O [citric acid]
10 | 3.00 | 2.09 | 1.31 | O=C(O)C(=O)O [oxalic acid]
11 | 3.33 | 2.74 | 2.21 | O=C(O)CC(O)C(=O)O (stereo not drawn) [malic acid]
12 | 3.21 | 2.57 | 2.02 | O=C(O)c1ccccc1O [salicylic acid]
13 | 3.59 | 3.04 | 2.53 | O=C1O[C@H]([C@@H](O)CO)C(O)=C1O [ascorbic acid]
14 | 3.91 | 3.39 | 2.88 | CC(=O)O [acetic acid]
